Read-outs that look alike come from different tables or passages of the source.
Columns and labels:
H3K36me3 in A549 cells = test: In-Cell Western (ICW) assay of SETD2 inhibitors (A549 assay); type: cell-based, human; conditions: A549 cells, read-out: SETD2 A549
In short: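 A549 cells seeded at 4,000/well onto compound and incubated 3 days at 37° C. Methanol-fixed cells stained overnight at 4° C with anti-H3K36me3 (1:1000), then IRDye 800CW secondary with DRAQ5 DNA counterstain. Plates read by Licor imaging at 700 and 800 channels.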

SETD2(1434-1711) = molecular target: T1, SETD2(1434-1711) (Homo sapiens, UniProt Q9BYW2); test: SETD2 (1434-1711) assay; type: biochemical; conditions: read-out: SETD2 (1434-1711)
T1 construct: SETD2 (1434-1711) Assay; catalogue N/A
T1 sequence (Q9BYW2 1434-1711): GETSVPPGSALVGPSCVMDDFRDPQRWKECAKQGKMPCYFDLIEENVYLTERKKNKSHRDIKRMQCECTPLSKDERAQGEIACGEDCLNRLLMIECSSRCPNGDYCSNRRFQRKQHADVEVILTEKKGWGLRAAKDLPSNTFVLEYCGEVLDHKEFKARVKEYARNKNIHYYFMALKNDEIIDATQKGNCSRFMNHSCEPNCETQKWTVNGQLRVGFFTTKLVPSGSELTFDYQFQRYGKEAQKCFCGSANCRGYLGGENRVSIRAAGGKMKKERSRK

| SMILES | IC50 (H3K36me3 in A549 cells; Homo sapiens) | IC50 (SETD2(1434-1711)) | IC50 (H3K36me3 in A549 cells) |
| --- | --- | --- | --- |
| Cc1ccc(F)c2cc(C(=O)Nc3cccc(N4CCCCC4)c3)[nH]c12 [compound 297] | 1100 nM | 100 nM | – |
| Cc1ccc(F)c2cc(C(=O)N[C@@H]3CCC[C@@H](N4CCn5c(cnc5C(F)(F)F)C4)C3)[nH]c12 [compound 994] | > 2000 nM | 1800 nM | – |
| Cc1ccc(F)c2cc(C(=O)NC3CCCC(N4CCN5C(=O)COCC5C4)C3)[nH]c12 (centres unmarked) [compound 1138] | – | 10 nM | 20 nM |
| Cc1ccc(F)c2cc(C(=O)Nc3cccc(N4CCCC(N)C4)c3)[nH]c12 (centres unmarked) [compound 310] | 1300 nM | 50 nM | – |
| Cc1cccc2cc(C(=O)Nc3ccc4ccccc4c3)[nH]c12 [compound 526] | 22600 nM | 1900 nM | – |
| Cc1cccc2cc(C(=O)NC(c3ncccc3Cl)C3CC3)[nH]c12 (centres unmarked) [compound 419] | 3400 nM | 800 nM | – |
| Cc1ccc(F)c2cc(C(=O)Nc3cccc(C4COCCN4)c3)[nH]c12 (centres unmarked) [compound 307] | 1200 nM | 200 nM | – |
| Cc1ccc(F)c2cc(C(=O)N[C@@H]3CCC[C@H](N4CCN(C(=O)OC5CCOCC5)CC4)C3)[nH]c12 [compound 999] | 60 nM | 10 nM | – |
| Cc1cccc2cc(C(=O)NC(c3cccc4c3NC(=O)C4)C3CC3)[nH]c12 (centres unmarked) [compound 564] | > 25000 nM | 10900 nM | – |
| Cc1ccc(F)c2cc(C(=O)NC3CCCC(N4CCCN(C)C(=O)C4)C3)[nH]c12 (centres unmarked) [compound 370] | – | 6800 nM | > 2000 nM |
| Cc1ccc(F)c2cc(C(=O)Nc3cc(F)cc([C@H]4CC[C@H](N(C)C)CC4)c3)[nH]c12 [compound 313] | 1300 nM | 30 nM | – |
| CNC(=O)CCN1CCCC(NC(=O)c2cc3c(F)ccc(C)c3[nH]2)C1 (centres unmarked) [compound 386] | – | > 10000 nM | > 2000 nM |
| Cc1ccc(F)c2cc(C(=O)NC3CCCC(N4CCC5(CCC(=O)N5CC(F)(F)F)CC4)C3)[nH]c12 (centres unmarked) [compound 965] | – | 20 nM | 200 nM |
| Cc1ccc(F)c2cc(C(=O)Nc3cccc(N4CCN(C5CCOC5)CC4)c3)[nH]c12 (centres unmarked) [compound 146] | 300 nM | 200 nM | – |
| Cc1ccc(F)c2cc(C(=O)Nc3cccc(C4CCN(C)C(=O)C4)c3)[nH]c12 (centres unmarked) [compound 160] | 300 nM | 90 nM | – |
| Cc1ccc(F)c2cc(C(=O)Nc3cc(F)cc(N4CCN(C)C(=O)C4)c3)[nH]c12 [compound 20] | 60 nM | 9 nM | – |
| Cc1cccnc1C(NC(=O)c1cc2cccc(C)c2[nH]1)C(C)(C)C (centres unmarked) [compound 568] | > 25000 nM | 13900 nM | – |
| Cc1ccc(F)c2cc(C(=O)Nc3cccc(-c4cccn5nccc45)c3)[nH]c12 [compound 235] | 500 nM | 100 nM | – |
| Cc1ccc(F)c2cc(C(=O)Nc3cccc(N4CCN(C(=O)C5CCCN(C)C5)CC4)c3)[nH]c12 (centres unmarked) [compound 138] | 300 nM | 10 nM | – |
| CC(=O)N1CCC(c2cc(F)cc(NC(=O)c3cc4c(F)ccc(C)c4[nH]3)c2)C1 (centres unmarked) [compound 56] | – | 30 nM | 100 nM |
| CC(=O)N1CCN([C@H]2CCC[C@@H](NC(=O)c3cc4cccc(C)c4[nH]3)C2)CC1 [compound 856] | – | 200 nM | 300 nM |
| Cc1ccc(F)c2cc(C(=O)Nc3cccc(N4CCC(N(C)CCO)C4)c3)[nH]c12 (centres unmarked) [compound 148] | 300 nM | 20 nM | – |
| Cc1ccc(F)c2cc(C(=O)N[C@@H]3CCCC(N4CCC5(CC4)CNC(=O)C5)C3)[nH]c12 (some centres unmarked) [compound 896] | 1800 nM | 100 nM | – |
| Cc1ccc(F)c2cc(C(=O)NC3CCCC(N4CCN(C(=O)CO)C(C(F)(F)F)C4)C3)[nH]c12 (centres unmarked) [compound 1176] | – | 2900 nM | > 2000 nM |
| Cc1cccc2cc(C(=O)Nc3ccn4ccnc4c3)[nH]c12 [compound 578] | – | 22500 nM | > 25000 nM |
| Cc1ccc(F)c2cc(C(=O)N[C@@H]3CCC[C@H](c4cc(=O)[nH]cn4)C3)[nH]c12 [compound 1068] | 700 nM | 100 nM | – |

| SMILES | IC50 (H3K36me3 in A549 cells; Homo sapiens) | IC50 (SETD2(1434-1711)) | IC50 (H3K36me3 in A549 cells) |
| --- | --- | --- | --- |
| Cc1ccc(F)c2cc(C(=O)NC3CCCc4cccnc43)[nH]c12 (centres unmarked) [compound 498] | – | 9400 nM | 13800 nM |
| Cc1ccc(F)c2cc(C(=O)Nc3cccc(-c4ccnn4C)c3)[nH]c12 [compound 239] | – | 200 nM | 600 nM |
| Cc1ccc(F)c2cc(C(=O)Nc3nnc(C4CCN(C)CC4)[nH]3)[nH]c12 [compound 559] | > 25000 nM | > 10000 nM | – |
| COCC(=O)N(C)[C@@H]1CCN([C@H]2CCC[C@@H](NC(=O)c3cc4c(F)ccc(C)c4[nH]3)C2)C1 [compound 1042] | 200 nM | 20 nM | – |
| Cc1cccc2cc(C(=O)NC(CN(C)C)c3cccnc3)[nH]c12 (centres unmarked) [compound 603] | – | > 50000 nM | > 25000 nM |
| CCCNC1CCN(c2cccc(NC(=O)c3cc4c(F)ccc(C)c4[nH]3)c2)CC1 [compound 225] | – | 30 nM | 500 nM |
| CNC(=NC#N)N1CCN(C2CCCC(NC(=O)c3cc4c(F)ccc(C)c4[nH]3)C2)CC1 (centres unmarked) [compound 1152] | – | 1100 nM | > 2000 nM |
| Cc1ccc(F)c2cc(C(=O)Nc3cccc(N4CCC(C(C)C)CC4)c3)[nH]c12 [compound 336] | – | 400 nM | 1600 nM |
| CC(=O)Nc1cccc(-c2cccc(NC(=O)c3cc4c(F)ccc(C)c4[nH]3)c2)c1 [compound 263] | 700 nM | 700 nM | – |
| Cc1ccc(F)c2cc(C(=O)Nc3cc(CF)cc(N4CCC(N(C)C)CC4)c3)[nH]c12 [compound 274] | 800 nM | 40 nM | – |
| Cc1ccc(F)c2cc(C(=O)Nc3cccc(N4CCN(C(C)C)C(=O)C4)c3)[nH]c12 [compound 201] | – | 90 nM | 400 nM |
| Cc1c(C#N)ccnc1C(NC(=O)c1cc2c(F)ccc(C)c2[nH]1)C1CC1 (centres unmarked) [compound 432] | 4500 nM | 700 nM | – |
| Cc1ccc(F)c2cc(C(=O)Nc3cccc(N4CCOCC4C)c3)[nH]c12 (centres unmarked) [compound 216] | – | 100 nM | 500 nM |
| Cc1ccc(F)c2cc(C(=O)Nc3cccc(C(C)(C)O)c3)[nH]c12 [compound 315] | 1400 nM | 600 nM | – |
| Cc1ccc(CN2CCOCC2)cc1NC(=O)c1cc2cccc(C)c2[nH]1 [compound 442] | 5100 nM | 2100 nM | – |
| Cc1ccc(F)c2cc(C(=O)Nc3cccc(CCO)c3)[nH]c12 [compound 341] | – | 200 nM | 1700 nM |
| COCC(=O)N(C)C1CCN([C@H]2CCC[C@@H](NC(=O)c3cc4c(F)ccc(C)c4[nH]3)C2)C1 (some centres unmarked) [compound 880] | 100 nM | 20 nM | – |
| Cc1ccc(F)c2cc(C(=O)Nc3cc(Cl)cc(-c4cncnc4)c3)[nH]c12 [compound 145] | 300 nM | 30 nM | – |
| COCCN(C)C1CCN(c2cccc(NC(=O)c3cc4c(F)ccc(C)c4[nH]3)c2)C1 (centres unmarked) [compound 156] | 300 nM | 30 nM | – |
| Cc1cccc2cc(C(=O)Nc3ccc4cnc(CN5CCN(C)CC5)cc4c3)[nH]c12 [compound 465] | 6600 nM | 400 nM | – |
| CN[C@H]1CCN([C@H]2CCC[C@@H](NC(=O)c3cc4c(F)ccc(C)c4[nH]3)C2)C1 [compound 1087] | 500 nM | 10 nM | – |
| Cc1cc(C(=O)N[C@@H]2CC[C@H]2N)cnc1C(NC(=O)c1cc2cccc(C)c2[nH]1)C1CC1 (some centres unmarked) [compound 455] | 5900 nM | 400 nM | – |
| Cc1ccc(F)c2cc(C(=O)Nc3cccc(N4CCOCC4CO)c3)[nH]c12 (centres unmarked) [compound 265] | 700 nM | 200 nM | – |
| CC(=O)N1CCCN(c2cccc(NC(=O)c3cc4c(F)ccc(C)c4[nH]3)c2)CC1 [compound 248] | – | 100 nM | 600 nM |
| CCOC(=O)N1CCN([C@H]2CCC[C@@H](NC(=O)c3cc4c(F)ccc(C)c4[nH]3)C2)CC1 [compound 824] | – | 10 nM | 40 nM |
| Cc1ccc(F)c2cc(C(=O)Nc3cccc(C4CCN5C(=O)CCC5C4)c3)[nH]c12 (centres unmarked) [compound 37] | – | 20 nM | 90 nM |
